According to US9303035B2, “Substituted pyrazino[1′,2′:1,2]pyrrolo[3,4-d]pyrimidines, pyrimido[4′,5′:3,4]pyrrolo[2,1-c][1,4]oxazines and pyrimido[4′,5′:3,4]pyrrolo[1,2-d][1,4]oxazepines for inhibiting the CFTR channel” (Novartis AG, priority 2012, dated 2016):

Target: CFTR (WT-CFTR channels stably expressed in CHO cells) (Homo sapiens (Human), UniProt P13569)
Assay: IonWorks Quattro CFTR inhibitor assay (whole-cell population patch clamp, forskolin-activated current)
Assay type: cell-based
Conditions: inward current (−100 mV); CHO cells stably expressing WT-CFTR; CFTR activated with 10 μM forskolin; 10 min compound incubation
From the text: CFTR activity can be quantified by electrophysiology methods, using the whole-cell configuration of the patch clamp technique (Hamill O, Marty A, Neher E, Sakmann B and Sigworth F. ‘Improved patch-clamp techniques for high resolution current recording from cells and cell-free membrane patches.’ Pflugers Archive 1981 391: 85-100). This assay directly measures the currents associated with chloride flow through CFTR channels whilst either maintaining or adjusting the transmembrane voltage. This assay can use either single glass micropipettes or parallel planar arrays to measure CFTR activity from native or recombinant cell systems. Currents measured using parallel planar arrays can be quantified using an appropriately equipped instrument such as the IonWorks Quattro (Molecular Devices Corporation, Sunnyvale, Calif.). The Quattro system can measure CFTR currents from either a single cell per recording well (HT configuration) or alternatively from a population of 64 cells per well (Population Patch Clamp PPC) (Finkel A, Wittel A, Yang N, Handran S, Hughes J, Costantin J. ‘Population patch clamp improves data consistency and success rates in the measurement of ionic currents.’ J Biomol Screen. 2006 August; 11(5):488-96).
Chinese hamster ovary (CHO) cells stably expressing WT-CFTR channels were used for the IonWorks Quattro experiments. Cells were maintained at 37° C. in 5% v/v CO2 at 100% humidity in MEM alpha medium supplemented with 10% (v/v) FCS, 100 U/mL Penicillin/Streptomycin, and 100 μg/L methotrexate. For experiments, cells were grown in 225 cm^2 tissue culture flasks until almost confluent. Cells were removed from the flask using trypsin-EDTA and resuspended in extracellular recording solution for immediate experimentation.
Cells, at a density of 1.5-2 million per mL, were placed on the Quattro system, added to the planar patch plate and seals allowed to establish for 5-10 mins. After assessing seal resistances (typically >50 MΩ), whole-cell access was obtained by perforation with 100 μg/mL amphotericin B. Baseline currents were measured by a pre-compound scan obtained by application of a voltage ramp from −100 to +100 mV. CFTR was activated by the addition of 10 μM forskolin to each of the 384 wells of the patch plate. After 5 min incubation the post-compound 1 currents were measured, again by application of a voltage ramp from −100 to +100 mV. Test compounds, diluted from 10 mM stocks in DMSO in extracellular solution were then added to the patch plate and were incubated for a further 10 min. The post-compound 2 currents were measured by the application of the same voltage ramp from −100 to +100 mV. The inhibition of CFTR was determined from the difference in current between the forskolin addition (post-compound 1) and the test compound (post-compound 2). This was determined at both −100 mV and +100 mV which represents the inward and outward current respectively.
Extracellular solution (ECS): 145 mM NaCl, 4 mM CsCl, 5 mM D-glucose, 10 mM TES, 1 mM CaCl2, 1 mM MgCl2, pH 7.4 NaOH
Intracellular solution (ICS): 113 mM L-Aspartic acid, 113 mM CsOH, 27 mM CsCl, 1 mM NaCl, 1 mM MgCl2, 1 mM EGTA, 10 mM TES. pH 7.2 with CsOH. Filter sterilized before use.

Sequence of CFTR (WT-CFTR channels stably expressed in CHO cells) (P13569 whole entry): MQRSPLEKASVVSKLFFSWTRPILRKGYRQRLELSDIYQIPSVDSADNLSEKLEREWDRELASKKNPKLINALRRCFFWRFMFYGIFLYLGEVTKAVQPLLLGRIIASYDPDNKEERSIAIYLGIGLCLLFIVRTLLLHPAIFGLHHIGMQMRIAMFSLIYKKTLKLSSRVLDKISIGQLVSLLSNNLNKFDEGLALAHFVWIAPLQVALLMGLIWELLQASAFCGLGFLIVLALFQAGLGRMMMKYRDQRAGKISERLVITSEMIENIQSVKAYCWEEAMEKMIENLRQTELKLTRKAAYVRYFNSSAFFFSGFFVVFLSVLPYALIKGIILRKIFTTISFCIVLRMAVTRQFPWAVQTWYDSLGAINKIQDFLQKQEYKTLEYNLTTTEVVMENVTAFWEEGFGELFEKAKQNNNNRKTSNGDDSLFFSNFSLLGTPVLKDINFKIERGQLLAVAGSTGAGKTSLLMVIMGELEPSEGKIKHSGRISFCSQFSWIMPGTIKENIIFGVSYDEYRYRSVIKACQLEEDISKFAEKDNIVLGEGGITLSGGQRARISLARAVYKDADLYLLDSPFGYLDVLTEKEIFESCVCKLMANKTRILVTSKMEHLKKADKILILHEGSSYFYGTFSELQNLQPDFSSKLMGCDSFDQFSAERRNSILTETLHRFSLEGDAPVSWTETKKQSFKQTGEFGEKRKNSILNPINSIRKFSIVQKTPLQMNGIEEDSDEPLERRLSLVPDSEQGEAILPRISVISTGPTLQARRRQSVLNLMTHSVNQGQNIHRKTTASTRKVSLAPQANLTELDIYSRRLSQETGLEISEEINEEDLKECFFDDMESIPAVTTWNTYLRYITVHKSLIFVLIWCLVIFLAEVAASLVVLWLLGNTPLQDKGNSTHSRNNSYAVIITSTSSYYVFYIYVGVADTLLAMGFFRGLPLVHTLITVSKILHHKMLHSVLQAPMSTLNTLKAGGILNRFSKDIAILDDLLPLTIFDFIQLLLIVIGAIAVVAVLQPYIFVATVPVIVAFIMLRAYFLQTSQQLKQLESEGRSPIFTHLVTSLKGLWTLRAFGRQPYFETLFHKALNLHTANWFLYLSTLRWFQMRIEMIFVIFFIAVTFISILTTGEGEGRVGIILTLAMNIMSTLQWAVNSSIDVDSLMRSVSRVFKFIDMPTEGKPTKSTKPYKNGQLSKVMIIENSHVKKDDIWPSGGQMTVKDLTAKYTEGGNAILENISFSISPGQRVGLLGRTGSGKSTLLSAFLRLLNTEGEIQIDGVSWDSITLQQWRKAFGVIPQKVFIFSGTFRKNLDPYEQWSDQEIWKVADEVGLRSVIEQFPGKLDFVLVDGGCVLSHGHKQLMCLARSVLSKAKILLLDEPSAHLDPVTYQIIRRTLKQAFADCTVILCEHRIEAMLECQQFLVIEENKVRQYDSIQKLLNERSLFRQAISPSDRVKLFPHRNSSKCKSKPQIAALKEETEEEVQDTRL

SMILES | IC50 [µM]
Cc1csc(-c2c3c(=O)n(C)c(=O)n(C)c3c3n2CCNC3c2ccc(Cl)o2)n1 (stereo not drawn) [Example 1.26, 10-(5-Chlorofuran-2-yl)-1,3-dimethyl-5-(4-methylthiazol-2-yl)-7,8,9,10-tetrahydropyrazino[1′,2′:1,2]pyrrolo[3,4-d]pyrimidine-2,4(1H,3H)-dione] | 1.9
COC[C@@H]1Cn2c(-c3cccc(Cl)c3)c3c(=O)n(C)c(=O)n(C)c3c2[C@H](c2ccc(Cl)o2)O1 (stereo in doubt) [Example 12.2, 10-(5-chlorofuran-2-yl)-5-(3-chlorophenyl)-8-(methoxymethyl)-1,3-dimethyl-7,8-dihydro-1H-pyrimido[4′,5′:3,4]pyrrolo[2,1-c][1,4]oxazine-2,4(3H,10H)-dione] | 0.24
Cn1c(=O)c2c(-c3ccccc3)n3c(c2n(C)c1=O)C(c1nc(C(F)(F)F)cs1)NCC3 (stereo not drawn) [Example 1.9, 1,3-Dimethyl-5-phenyl-10-(4-(trifluoromethyl)thiazol-2-yl)-7,8,9,10-tetrahydropyrazino[1′,2′:1,2]pyrrolo[3,4-d]pyrimidine-2,4(1H,3H)-dione] | 6.31
